A value given as a limit tells only on which side of the number the result lay.

What is called melting point is the temperature, or range, at which the solid turns liquid.

For the compound `CC1(C)CCC(C)(C)c2cc3c(cc21)CCC=C3Cc1ccc(C(=O)O)cc1`, the melting point fell in the range of 212 to 214 °C.

For `CN(C)C1CCc2[nH]c3cc(O)ccc3c2C1` (stereo unspecified), the melting point fell in the range of 286 to 288 °C.

As to `O=C(CC(=O)c1ccccc1)Nc1cc(Cl)c(Cl)cc1[N+](=O)[O-]`, the melting point lay in the range of 177 to 179 °C.

As for `COc1ncccc1Nc1c(NC(NC(=O)c2ccc(Cl)cc2)C(C)(C)C)c(=O)c1=O` (stereo unspecified), the melting point lay within 239 to 241 °C.

For the compound `CCCc1c(OCCCOc2ccc3c(c2CCC)OC(C(C)=O)(C(=O)OC)CC3)ccc(C(C)=O)c1O` (stereo unspecified), the melting point was in the range of 58 to 59 °C.

For the compound `CC1(C)OC(=O)Nc2ccc(-c3cccc(F)c3F)cc21`, the melting point lay within 166 to 167 °C.

Regarding `CC1Cc2ccc(Br)cc2C(c2ccc(N)cc2)=NN1C(N)=O` (stereo unspecified), the melting point is 218 to 221 °C.

Compound `CC(C)Oc1cc(CCCO)n(Cc2ccc(Cl)cc2Cl)n1` had a melting point of 51 to 52 °C.

Consider `CCCCOC(=O)C(=C1SC=CS1)S(=O)(=O)C(C)C`, for which the melting point is 67 to 69 °C.

On to `CCC(C)c1ccc(N(Cc2ccccc2)C(=N)N)cc1` (stereo unspecified), for which the melting point was 65 to 67 °C.

The compound `CCC(CC)c1nn(-c2ccc(C(F)(F)F)cn2)cc1CCCOc1c(C)cccc1CC(=O)O` came in with a melting point of 125 to 126 °C.

Compound `COc1ccc2nc(NC(=O)c3nc4ccccc4[nH]3)sc2c1` returned a melting point of 246 °C.

Consider `Cc1nn(C)c(=O)n1-c1ccc([N+](=O)[O-])cc1`, for which the melting point is 153 °C.

In turn, `Cc1cc(C=O)cc(C)c1N` had a melting point of 75 to 76 °C.

`Fc1ccc(-c2cc(-c3ccccc3)c3cc(Cl)ccc3n2)cc1`: the melting point fell in the range of 141 to 142 °C.

For the compound `CC(C)(C)c1cc(-n2nc3ccccc3n2)c(O)c(C(C)(C)C)c1`, the melting point lay within 150 to 152 °C.

For the compound `CC1=CSC(n2ccc(OCc3ccc(C(F)(F)F)o3)cc2=O)N1C(=O)O` (stereo unspecified), the melting point is 261 to 263 °C.

`Cc1cc(-c2cc(CO)c(=O)n(Cc3ccccc3Cl)n2)ccc1F`: the melting point is 149 to 150 °C.

Compound `Cc1cc(C)c(NS(=O)(=O)c2cc(S(=O)(=O)Nc3c(C)cc(C)cc3C)c3cc(O)ccc3c2)c(C)c1` had a melting point of 148 to 150 °C.

For `OCCN1CCN(C2Cc3ccccc3Sc3cc(F)c(Cl)cc32)CC1` (stereo unspecified), the melting point is 150 to 152 °C.

For the compound `C[C@H](COc1ccc(C=C2SC(=S)N(CC(=O)O)C2=O)cc1O[C@@H](c1ccccc1)C(F)(F)F)c1ccccc1`, the melting point lay within 73 to 80 °C.

`O=C(O)c1cc2c(s1)CCC2=O` came in with a melting point of 195 to 196 °C.

The compound `CCOC(=O)N1Cc2sc3ncn(CCO)c(=O)c3c2C1` yielded a melting point of 243 to 245 °C.

In the case of `COC1CCC2C3CCC4CC(Cl)CCC4(C)C3CCC12C` (stereo unspecified), the melting point is 151 to 154 °C.

Take `c1cc(-c2ccn3cnnc3c2)ccn1`: the melting point lay within 194 to 196 °C.

In the case of `CN1C(=O)c2ccccc2OC1C(Cl)(Cl)Cl` (stereo unspecified), the melting point fell in the range of 82 to 84 °C.

On to `O=c1[nH]c2cc3[nH]c(=O)oc3cc2[nH]1`, for which the melting point was over 360 °C.

Compound `CC1(C)OCc2cc(Cc3c[nH]cn3)ccc2O1` displayed a melting point of 150 to 170 °C.

As to `CCn1c(C(C)NS(=O)(=O)c2ccc(Cl)c(Cl)c2)cnc1Sc1ccc(C)cc1` (stereo unspecified), the melting point lay within 173 to 174 °C.

Take `CCC(C(=O)N(C)C)n1ccc(-c2ccccc2Cl)n1` (stereo unspecified): the melting point lay within 38.5 to 40 °C.

`C=CCOc1ccccc1OCC=Cc1ccc(OC)c(OC)c1` yielded a melting point of 60 to 60.5 °C.

For `CCNC(=O)Nc1ccc(C#Cc2ccc(N3CC4CCC(C3)N4C)nn2)cc1`, the melting point was 269 °C.

`S=C(NC(=S)c1c(Cl)cccc1Cl)Nc1ccc(Cl)c(Cl)c1` registered a melting point of 168 to 170 °C.

On to `Oc1ccc2c(c1O)OCC(c1ccccc1)C2` (stereo unspecified), for which the melting point turned out to be 138 °C.

With `COc1cc(N)c(Cl)cc1C(=O)Cl`, the melting point worked out at 242 °C.

`COc1ccc(Br)c(OC)c1-c1ccc(C[C@H](NC(=O)c2c(Cl)cccc2Cl)C(=O)O)cc1` had a melting point of 205 to 206 °C.

The values above are taken from a melting point compilation (Tetko et al.; mined from patent text by program, amines drawn as free bases though some values may be those of a salt).
